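Tested at 5 concentrations; 48 h exposure; 96-well plates; endpoints linearly interpolated, else capped at highest concentration. GI50 marks 50% less growth. The concentration for full growth arrest is given as TGI.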
Experiments:
Test in all cases: NCI tumour cell line growth inhibition, 48 h
NCI-H226 lung = test system: NCI-H226 lung
LOX IMVI melanoma = test system: LOX IMVI melanoma
IGROV1 ovarian = test system: IGROV1 ovarian
NCI-H460 lung = test system: NCI-H460 lung
PC-3 prostate = test system: PC-3 prostate
SK-MEL-2 melanoma = test system: SK-MEL-2 melanoma
BT-549 breast = test system: BT-549 breast
SNB-75 CNS = test system: SNB-75 CNS
NCI-H522 lung = test system: NCI-H522 lung
KM12 colon = test system: KM12 colon
HCC-2998 colon = test system: HCC-2998 colon
SK-MEL-5 melanoma = test system: SK-MEL-5 melanoma
MDA-MB-435 = test system: MDA-MB-435
HS 578T breast = test system: HS 578T breast
MDA-MB-468 breast = test system: MDA-MB-468 breast
OVCAR-5 ovarian = test system: OVCAR-5 ovarian
MCF7 breast = test system: MCF7 breast
SF-539 CNS = test system: SF-539 CNS
HOP-62 NSCLC = test system: HOP-62 NSCLC
CAKI-1 renal = test system: CAKI-1 renal
SW-620 colon = test system: SW-620 colon
UACC-62 melanoma = test system: UACC-62 melanoma
CCRF-CEM leukemia = test system: CCRF-CEM leukemia
NCI/ADR-RES ovarian = test system: NCI/ADR-RES ovarian
M14 melanoma = test system: M14 melanoma
OVCAR-3 ovarian = test system: OVCAR-3 ovarian
HT29 colon = test system: HT29 colon
TK-10 renal = test system: TK-10 renal
A498 renal = test system: A498 renal
OVCAR-8 ovarian = test system: OVCAR-8 ovarian
MOLT-4 leukemia = test system: MOLT-4 leukemia
K-562 leukemia = test system: K-562 leukemia
SN12C renal = test system: SN12C renal
HL-60(TB) leukemia = test system: HL-60(TB) leukemia
HOP-92 NSCLC = test system: HOP-92 NSCLC
EKVX NSCLC = test system: EKVX NSCLC
SK-MEL-28 melanoma = test system: SK-MEL-28 melanoma
SK-OV-3 ovarian = test system: SK-OV-3 ovarian
786-0 renal = test system: 786-0 renal
MALME-3M melanoma = test system: MALME-3M melanoma
A549 NSCLC = test system: A549 NSCLC
COLO 205 colon = test system: COLO 205 colon
OVCAR-4 ovarian = test system: OVCAR-4 ovarian
ACHN renal = test system: ACHN renal
HCT-116 colon = test system: HCT-116 colon
RXF 393 renal = test system: RXF 393 renal
DU-145 prostate = test system: DU-145 prostate
SF-295 CNS = test system: SF-295 CNS
SF-268 CNS = test system: SF-268 CNS
NCI-H23 lung = test system: NCI-H23 lung
UACC-257 melanoma = test system: UACC-257 melanoma
RPMI-8226 leukemia = test system: RPMI-8226 leukemia
U251 CNS = test system: U251 CNS
HCT-15 colon = test system: HCT-15 colon

`C=C1CC[C@@H]2[C@]3(C)COC(c4cn[nH]c4-c4ccc(Br)cc4)O[C@@H]3CC[C@@]2(C)[C@@H]1C/C=C1/C(=O)OCC1O` (stereo partly drawn) gave a GI50 (NCI-H226 lung) of 1.93 µM, a TGI (NCI-H226 lung) of 4.32 µM and a GI50 (LOX IMVI melanoma) of 1.37 µM. The TGI (LOX IMVI melanoma) was 2.72 µM, the GI50 (IGROV1 ovarian) was 13.8 µM and the TGI (IGROV1 ovarian) was 30.9 µM. For the same compound, the GI50 (NCI-H460 lung) was 12.6 µM, the TGI (NCI-H460 lung) was 29.7 µM and the GI50 (PC-3 prostate) was 4.08 µM. It also gave a TGI (PC-3 prostate) of 30.3 µM, a GI50 (SK-MEL-2 melanoma) of 5.85 µM and a TGI (SK-MEL-2 melanoma) of 20.8 µM. It also gave a GI50 (BT-549 breast) of 2.88 µM, a TGI (BT-549 breast) of 12.3 µM and a GI50 (SNB-75 CNS) of 7.04 µM. The TGI (SNB-75 CNS) was 25.7 µM, the GI50 (NCI-H522 lung) was 2.08 µM and the TGI (NCI-H522 lung) was 5.75 µM. It also gave a GI50 (KM12 colon) of 7.16 µM, a TGI (KM12 colon) of 29.2 µM and a GI50 (HCC-2998 colon) of 9.11 µM. The TGI (HCC-2998 colon) was 21.4 µM, the GI50 (SK-MEL-5 melanoma) was 10.4 µM and the TGI (SK-MEL-5 melanoma) was 23.4 µM. For the same compound, the GI50 (MDA-MB-435) was 3.24 µM, the TGI (MDA-MB-435) was 15.3 µM and the GI50 (HS 578T breast) was 17.7 µM. For the same compound, the TGI (HS 578T breast) was > 100 µM, the GI50 (MDA-MB-468 breast) was 2.47 µM and the TGI (MDA-MB-468 breast) was 9.41 µM. For the same compound, the GI50 (OVCAR-5 ovarian) was 10 µM, the TGI (OVCAR-5 ovarian) was 23.1 µM and the GI50 (MCF7 breast) was 2.13 µM. The TGI (MCF7 breast) was 10.4 µM, the GI50 (SF-539 CNS) was 2.2 µM and the TGI (SF-539 CNS) was 5.67 µM. It also gave a GI50 (HOP-62 NSCLC) of 18.9 µM, a TGI (HOP-62 NSCLC) of 37.3 µM and a GI50 (CAKI-1 renal) of 8.18 µM. It also gave a TGI (CAKI-1 renal) of 22 µM, a GI50 (SW-620 colon) of 2.33 µM and a TGI (SW-620 colon) of 6.36 µM. It also gave a GI50 (UACC-62 melanoma) of 3.44 µM, a TGI (UACC-62 melanoma) of 15.8 µM and a GI50 (CCRF-CEM leukemia) of 2.81 µM. The TGI (CCRF-CEM leukemia) was 44.2 µM, the GI50 (NCI/ADR-RES ovarian) was 2.2 µM and the TGI (NCI/ADR-RES ovarian) was 6.91 µM. It also gave a GI50 (M14 melanoma) of 3.4 µM, a TGI (M14 melanoma) of 16.7 µM and a GI50 (OVCAR-3 ovarian) of 2.08 µM. The TGI (OVCAR-3 ovarian) was 4.49 µM, the GI50 (HT29 colon) was 2.8 µM and the TGI (HT29 colon) was 10.5 µM. It also gave a GI50 (TK-10 renal) of 18.4 µM, a TGI (TK-10 renal) of 33.4 µM and a GI50 (A498 renal) of 16.8 µM. The TGI (A498 renal) was 30.6 µM, the GI50 (OVCAR-8 ovarian) was 3.24 µM and the TGI (OVCAR-8 ovarian) was 61.9 µM. For the same compound, the GI50 (MOLT-4 leukemia) was 2.86 µM, the TGI (MOLT-4 leukemia) was 13.6 µM and the GI50 (K-562 leukemia) was 2.24 µM. For the same compound, the TGI (K-562 leukemia) was 15.4 µM, the GI50 (SN12C renal) was 7.51 µM and the TGI (SN12C renal) was 21.5 µM. It also gave a GI50 (HL-60(TB) leukemia) of 2.3 µM, a TGI (HL-60(TB) leukemia) of 17.6 µM and a GI50 (HOP-92 NSCLC) of 5.08 µM. It also gave a TGI (HOP-92 NSCLC) of 22.7 µM, a GI50 (EKVX NSCLC) of 4.68 µM and a TGI (EKVX NSCLC) of 17.7 µM. It also gave a GI50 (SK-MEL-28 melanoma) of 2.13 µM, a TGI (SK-MEL-28 melanoma) of 4.95 µM and a GI50 (SK-OV-3 ovarian) of 16.8 µM. The TGI (SK-OV-3 ovarian) was 32.2 µM, the GI50 (786-0 renal) was 5.75 µM and the TGI (786-0 renal) was 18.8 µM. The GI50 (MALME-3M melanoma) was 3.98 µM, the TGI (MALME-3M melanoma) was 17.7 µM and the GI50 (A549 NSCLC) was 11.1 µM. It also gave a TGI (A549 NSCLC) of 26.4 µM, a GI50 (COLO 205 colon) of 4.45 µM and a TGI (COLO 205 colon) of 18.1 µM. The GI50 (OVCAR-4 ovarian) was 5.02 µM, the TGI (OVCAR-4 ovarian) was 32.8 µM and the GI50 (ACHN renal) was 2.16 µM. It also gave a TGI (ACHN renal) of 6.16 µM, a GI50 (HCT-116 colon) of 1.94 µM and a TGI (HCT-116 colon) of 5.19 µM. It also gave a GI50 (RXF 393 renal) of 1.9 µM, a TGI (RXF 393 renal) of 4.42 µM and a GI50 (DU-145 prostate) of 8.24 µM. The TGI (DU-145 prostate) was 23.6 µM, the GI50 (SF-295 CNS) was 12.1 µM and the TGI (SF-295 CNS) was 25.4 µM. The GI50 (SF-268 CNS) was 16.5 µM, the TGI (SF-268 CNS) was 42.3 µM and the GI50 (NCI-H23 lung) was 10.5 µM. The TGI (NCI-H23 lung) was 23.1 µM, the GI50 (UACC-257 melanoma) was 11.8 µM and the TGI (UACC-257 melanoma) was 27.5 µM. For the same compound, the GI50 (RPMI-8226 leukemia) was 2.56 µM, the TGI (RPMI-8226 leukemia) was > 100 µM and the GI50 (U251 CNS) was 6.83 µM. The TGI (U251 CNS) was 19.9 µM, the GI50 (HCT-15 colon) was 1.97 µM and the TGI (HCT-15 colon) was 5.3 µM.

From PubChem BioAssay (NCI)
